Laboratory results: patent publication US20020137929A1, “1 - (3-heterocyclylphenyl) isothiourea, -isourea, -guanidine and -amidine herbicidal agents” (Intellectual Property Department, BASF Aktiengesellschaft, priority 1998, published 2002)

Columns and labels:
CYPSE (Flatsedge) = assay: Preemergence weed control under flooded paddy conditions; assay type: in vivo, Cyperus serotinus; settings: rated 3-4 weeks after treatment
Procedure, shortened: (§1)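 Visual injury scored 0-9 against control three to four weeks post-treatment, greenhouse-grown. Application: acetone/water (50/50) solutions dosed directly into flood water (1.5-3 cm over silt loam, planted top 0.5 cm), roughly 0.0313 to 0.500 kg/ha active ingredient.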

GALAP (Galium) [1] = assay: Postemergence herbicidal evaluation; assay type: in vivo, Galium aparine; settings: postemergence
Procedure, shortened: (§2)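 Visual 0–9 rating versus control (stand, vigor, malformation, size, chlorosis, overall appearance), taken four to five weeks post-spray. Two-week-old seedlings received roughly 0.0156–0.500 kg/ha active in acetone/water (50/50) with 0.5% TWEEN 20 via nozzle at 40 psi.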

[2] = tested on: SAGPY (Arrowhead (Pygmaea)); assay: Preemergence weed control under flooded paddy conditions; assay type: in vivo, Sagittaria pygmaea; settings: rated 3-4 weeks after treatment
Procedure, shortened: as §1

ORYSAT (Rice, Tebonnet) = assay: Postemergence herbicidal evaluation; assay type: in vivo, Oryza sativa, (L.) Tebonnet; settings: postemergence
Procedure, shortened: as §2

AMBEL (Ragweed, Common) = assay: Postemergence herbicidal evaluation; assay type: in vivo, Ambrosia artemisifolia; settings: postemergence
Procedure, shortened: as §2

ZEAMX (Corn, Field) = assay: Preemergence herbicidal evaluation; assay type: in vivo, Zea mays; settings: rated 4-5 weeks after treatment
Procedure, shortened: (§3)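 Each species is sown separately in potting soil over roughly an inch of soil before any emergence. The soil surface then receives an aqueous acetone spray delivering about 0.0156 to 0.500 kg/ha of compound. After four to five weeks, injury is scored from 0 to 9 relative to a control.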

GALAP (Galium) [3] = assay: Preemergence herbicidal evaluation; assay type: in vivo, Galium aparine; settings: rated 4-5 weeks after treatment
Procedure, shortened: as §3

CYPIR (Rice Flatsedge) = assay: Preemergence weed control under flooded paddy conditions; assay type: in vivo, Cyperus iria; settings: rated 3-4 weeks after treatment
Procedure, shortened: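 First, seeds or propagules go into the top 0.5 cm of silt loam; next, water is held 1.5 to 3 cm over the soil; then compound (50/50 acetone/water) is pipetted into it at about 0.0313 to 0.500 kg/ha; finally plants are rated visually 0-9 after three to four weeks.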

[4] = tested on: GLXMAW (Soybean, Williams); assay: Postemergence herbicidal evaluation; assay type: in vivo, Glycine max, (L.) Merr. cv Williams; settings: postemergence
Procedure, shortened: as §2

ECHCG (Barnyardgrass) = assay: Postemergence herbicidal evaluation; assay type: in vivo, Echinochloa crus-galli; settings: postemergence
Procedure, shortened: as §2

CASOB (Sicklepod) [5] = assay: Preemergence herbicidal evaluation; assay type: in vivo, Cassia obtusifolia; settings: rated 4-5 weeks after treatment
Procedure, shortened: as §3

SETVI (Foxtail, Green) = assay: Postemergence herbicidal evaluation; assay type: in vivo, Setaria viridis; settings: postemergence
Procedure, shortened: as §2

CASOB (Sicklepod) [6] = assay: Postemergence herbicidal evaluation; assay type: in vivo, Cassia obtusifolia; settings: postemergence
Procedure, shortened: as §2

[7] = tested on: CHEAL (Lambsquarters, Common); assay: Postemergence herbicidal evaluation; assay type: in vivo, Chenopodium album; settings: postemergence
Procedure, shortened: as §2

[8] = rate 0.1250 kg/ha, rating scale 0-9
[9] = rate 0.2500 kg/ha, rating scale 0-9
[10] = rate 0.0625 kg/ha, rating scale 0-9

SMILES: COC(=O)CSCCN1C(=O)CSC1=Nc1cc(-n2c(=O)cc(C(F)(F)F)n(C)c2=O)c(F)cc1Cl [Compound 158, Methyl {{2-{2-{{2-chloro-5-[3,6-dihydro-3-methyl-2,6-dioxo-4-(trifluoromethyl)-1(2H)-pyrimidinyl]-4-fluorophenyl}imino}-4-oxo-3-thiazolidinyl}ethyl}-thio}acetate]
- herbicidal effect rating, CYPSE (CYPSE (Flatsedge); 0.0313 kg/ha): 5.0
- herbicidal effect rating, CYPSE (CYPSE (Flatsedge); 0.0625 kg/ha): 9.0
- herbicidal effect rating, CYPSE (CYPSE (Flatsedge); 0.1250 kg/ha): 9.0
- herbicidal effect rating, CYPSE (CYPSE (Flatsedge); 0.2500 kg/ha): 9.0
- herbicidal rating GALAP (GALAP (Galium) [1]; rate 0.0156 kg/ha): 0.0
- herbicidal rating GALAP (GALAP (Galium) [1]; rate 0.0313 kg/ha): 2.0
- herbicidal rating GALAP (GALAP (Galium) [1]; rate 0.0625 kg/ha): 3.0
- herbicidal effect rating, SAGPY ([2]; 0.0313 kg/ha): 4.0
- herbicidal effect rating, SAGPY ([2]; 0.0625 kg/ha): 5.0
- herbicidal effect rating, SAGPY ([2]; 0.1250 kg/ha): 6.0
- herbicidal effect rating, SAGPY ([2]; 0.2500 kg/ha): 9.0
- herbicidal rating ORYSAT (ORYSAT (Rice, Tebonnet); rate 0.0156 kg/ha): 2.0
- herbicidal rating ORYSAT (ORYSAT (Rice, Tebonnet); rate 0.0313 kg/ha): 2.5
- herbicidal rating ORYSAT (ORYSAT (Rice, Tebonnet); rate 0.0625 kg/ha): 3.5
- herbicidal rating AMBEL (AMBEL (Ragweed, Common); rate 0.0156 kg/ha): 6.0
- herbicidal rating AMBEL (AMBEL (Ragweed, Common); rate 0.0313 kg/ha): 7.0
- herbicidal rating AMBEL (AMBEL (Ragweed, Common); rate 0.0625 kg/ha): 9.0
- Preemergence herbicidal rating ZEAMX (ZEAMX (Corn, Field); 0.0156 kg/ha): 5.0
- Preemergence herbicidal rating ZEAMX (ZEAMX (Corn, Field); 0.0313 kg/ha): 7.0
- Preemergence herbicidal rating ZEAMX (ZEAMX (Corn, Field); 0.0625 kg/ha): 8.0
- Preemergence herbicidal rating ZEAMX (ZEAMX (Corn, Field); [8]): 9.0
- Preemergence herbicidal rating ZEAMX (ZEAMX (Corn, Field); [9]): 9.0
- Preemergence herbicidal rating GALAP (GALAP (Galium) [3]; 0.0156 kg/ha): 0.0
- Preemergence herbicidal rating GALAP (GALAP (Galium) [3]; 0.0313 kg/ha): 0.0
- Preemergence herbicidal rating GALAP (GALAP (Galium) [3]; 0.0625 kg/ha): 5.0
- Preemergence herbicidal rating GALAP (GALAP (Galium) [3]; [8]): 7.0
- Preemergence herbicidal rating GALAP (GALAP (Galium) [3]; [9]): 6.0
- herbicidal effect rating, CYPIR (CYPIR (Rice Flatsedge); 0.0313 kg/ha): 9.0
- herbicidal effect rating, CYPIR (CYPIR (Rice Flatsedge); 0.0625 kg/ha): 9.0
- herbicidal effect rating, CYPIR (CYPIR (Rice Flatsedge); 0.1250 kg/ha): 9.0
- herbicidal effect rating, CYPIR (CYPIR (Rice Flatsedge); 0.2500 kg/ha): 9.0
- herbicidal rating GLXMAW ([4]; rate 0.0156 kg/ha): 5.0
- herbicidal rating GLXMAW ([4]; rate 0.0313 kg/ha): 5.0
- herbicidal rating GLXMAW ([4]; rate 0.0625 kg/ha): 7.0
- herbicidal rating ECHCG (ECHCG (Barnyardgrass); rate 0.0156 kg/ha): 2.0
- herbicidal rating ECHCG (ECHCG (Barnyardgrass); rate 0.0313 kg/ha): 2.0
- herbicidal rating ECHCG (ECHCG (Barnyardgrass); rate 0.0625 kg/ha): 3.0
- Preemergence herbicidal rating CASOB (CASOB (Sicklepod) [5]; 0.0156 kg/ha): 1.0
- Preemergence herbicidal rating CASOB (CASOB (Sicklepod) [5]; 0.0313 kg/ha): 3.0
- Preemergence herbicidal rating CASOB (CASOB (Sicklepod) [5]; 0.0625 kg/ha): 4.0
- Preemergence herbicidal rating CASOB (CASOB (Sicklepod) [5]; [8]): 9.0
- Preemergence herbicidal rating CASOB (CASOB (Sicklepod) [5]; [9]): 5.0
- herbicidal rating SETVI (SETVI (Foxtail, Green); rate 0.0156 kg/ha): 2.0
- herbicidal rating SETVI (SETVI (Foxtail, Green); rate 0.0313 kg/ha): 3.0
- herbicidal rating SETVI (SETVI (Foxtail, Green); rate 0.0625 kg/ha): 9.0
- herbicidal rating CASOB (CASOB (Sicklepod) [6]; rate 0.0156 kg/ha): 4.0
- herbicidal rating CASOB (CASOB (Sicklepod) [6]; rate 0.0313 kg/ha): 4.0
- herbicidal rating CASOB (CASOB (Sicklepod) [6]; rate 0.0625 kg/ha): 9.0
- herbicidal rating CHEAL ([7]; rate 0.0156 kg/ha): 6.0
- herbicidal rating CHEAL ([7]; rate 0.0313 kg/ha): 7.0
- herbicidal rating CHEAL ([7]; rate 0.0625 kg/ha): 9.0

SMILES: COCCN1C(=O)CSC1=Nc1cc(-n2c(=O)cc(C(F)(F)F)n(C)c2=O)c(F)cc1Cl [Compound 155, 3-{4-Chloro-2-fluoro-5-{[3-(2-methoxyethyl)-4-oxo-2-thiazolidinylidene]amino}phenyl}-1-methyl-6-(trifluoromethyl)-2,4(1H,3H)-pyrimidinedione]
- herbicidal effect rating, CYPSE (CYPSE (Flatsedge); 0.0313 kg/ha): 0.0
- herbicidal effect rating, CYPSE (CYPSE (Flatsedge); 0.0625 kg/ha): 0.0
- herbicidal effect rating, CYPSE (CYPSE (Flatsedge); 0.1250 kg/ha): 0.0
- herbicidal rating GALAP (GALAP (Galium) [1]; rate 0.0156 kg/ha): 0.0
- herbicidal rating GALAP (GALAP (Galium) [1]; rate 0.0313 kg/ha): 0.0
- herbicidal rating GALAP (GALAP (Galium) [1]; rate 0.0625 kg/ha): 0.0
- herbicidal effect rating, SAGPY ([2]; 0.0313 kg/ha): 0.0
- herbicidal effect rating, SAGPY ([2]; 0.0625 kg/ha): 0.0
- herbicidal effect rating, SAGPY ([2]; 0.1250 kg/ha): 0.0
- herbicidal effect rating, SAGPY ([2]; 0.2500 kg/ha): 0.0
- herbicidal rating ORYSAT (ORYSAT (Rice, Tebonnet); rate 0.0156 kg/ha): 0.0
- herbicidal rating ORYSAT (ORYSAT (Rice, Tebonnet); rate 0.0313 kg/ha): 0.0
- herbicidal rating ORYSAT (ORYSAT (Rice, Tebonnet); rate 0.0625 kg/ha): 0.0
- herbicidal rating AMBEL (AMBEL (Ragweed, Common); rate 0.0156 kg/ha): 0.0
- herbicidal rating AMBEL (AMBEL (Ragweed, Common); rate 0.0313 kg/ha): 0.0
- herbicidal rating AMBEL (AMBEL (Ragweed, Common); rate 0.0625 kg/ha): 0.0
- Preemergence herbicidal rating ZEAMX (ZEAMX (Corn, Field); [10]): 0.0
- Preemergence herbicidal rating ZEAMX (ZEAMX (Corn, Field); [8]): 0.0
- Preemergence herbicidal rating ZEAMX (ZEAMX (Corn, Field); [9]): 2.0
- Preemergence herbicidal rating GALAP (GALAP (Galium) [3]; [10]): 4.0
- Preemergence herbicidal rating GALAP (GALAP (Galium) [3]; [8]): 4.0
- Preemergence herbicidal rating GALAP (GALAP (Galium) [3]; [9]): 4.0
- herbicidal effect rating, CYPIR (CYPIR (Rice Flatsedge); 0.0313 kg/ha): 0.0
- herbicidal effect rating, CYPIR (CYPIR (Rice Flatsedge); 0.0625 kg/ha): 0.0
- herbicidal effect rating, CYPIR (CYPIR (Rice Flatsedge); 0.1250 kg/ha): 0.0
- herbicidal effect rating, CYPIR (CYPIR (Rice Flatsedge); 0.2500 kg/ha): 0.0
- herbicidal rating GLXMAW ([4]; rate 0.0156 kg/ha): 4.0
- herbicidal rating GLXMAW ([4]; rate 0.0313 kg/ha): 5.0
- herbicidal rating GLXMAW ([4]; rate 0.0625 kg/ha): 5.0
- herbicidal rating ECHCG (ECHCG (Barnyardgrass); rate 0.0156 kg/ha): 0.0
- herbicidal rating ECHCG (ECHCG (Barnyardgrass); rate 0.0313 kg/ha): 0.0
- herbicidal rating ECHCG (ECHCG (Barnyardgrass); rate 0.0625 kg/ha): 0.0
- Preemergence herbicidal rating CASOB (CASOB (Sicklepod) [5]; [10]): 0.0
- Preemergence herbicidal rating CASOB (CASOB (Sicklepod) [5]; [8]): 0.0
- Preemergence herbicidal rating CASOB (CASOB (Sicklepod) [5]; [9]): 0.0
- herbicidal rating SETVI (SETVI (Foxtail, Green); rate 0.0156 kg/ha): 0.0
- herbicidal rating SETVI (SETVI (Foxtail, Green); rate 0.0313 kg/ha): 0.0
- herbicidal rating SETVI (SETVI (Foxtail, Green); rate 0.0625 kg/ha): 0.0
- herbicidal rating CASOB (CASOB (Sicklepod) [6]; rate 0.0156 kg/ha): 0.0
- herbicidal rating CASOB (CASOB (Sicklepod) [6]; rate 0.0313 kg/ha): 0.0
- herbicidal rating CASOB (CASOB (Sicklepod) [6]; rate 0.0625 kg/ha): 0.0
- herbicidal rating CHEAL ([7]; rate 0.0156 kg/ha): 0.0
- herbicidal rating CHEAL ([7]; rate 0.0313 kg/ha): 0.0
- herbicidal rating CHEAL ([7]; rate 0.0625 kg/ha): 0.0
